Test results taken from patent publication US8258134B2, “Pyridazinone glucokinase activators” (Hoffmann-La Roche Inc., priority 2008, dated 2012).

Target: T1, Recombinant human liver GK1 (GST-GK) (Homo sapiens, UniProt P35557)
T1 construct: made in house; host or cells: E. coli
T1 sequence (P35557 1-466 isoform P35557-2): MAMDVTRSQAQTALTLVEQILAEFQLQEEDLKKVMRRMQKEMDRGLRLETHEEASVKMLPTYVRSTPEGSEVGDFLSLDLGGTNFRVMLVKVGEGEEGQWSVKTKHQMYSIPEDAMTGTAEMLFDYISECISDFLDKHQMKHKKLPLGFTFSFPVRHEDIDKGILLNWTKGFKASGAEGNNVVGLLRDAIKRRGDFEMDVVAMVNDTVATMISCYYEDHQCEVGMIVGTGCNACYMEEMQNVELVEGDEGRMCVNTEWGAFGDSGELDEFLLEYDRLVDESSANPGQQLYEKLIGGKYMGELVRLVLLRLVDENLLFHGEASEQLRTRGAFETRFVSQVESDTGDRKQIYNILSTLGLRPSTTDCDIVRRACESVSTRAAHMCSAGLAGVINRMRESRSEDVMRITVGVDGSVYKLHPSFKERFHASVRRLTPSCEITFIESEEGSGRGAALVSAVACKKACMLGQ
Assay: Glucokinase in vitro assay (G6PDH-coupled NADH generation, OD340)
Format: biochemical
Settings: 5 mM D-glucose, 30° C., pH 7.1, 10% DMSO
Procedure: Glucokinase In Vitro Assay Protocol: Glucokinase (GK) was assayed by coupling the production of glucose-6-phosphate to the generation of NADH with glucose-6-phosphate dehydrogenase (G6PDH, 0.75-1 k units/mg; Boehringer Mannheim, Indianapolis, Ind.) from Leuconostoc mesenteroides as the coupling enzyme (Scheme 2):
Recombinant human liver GK1 was expressed in E. coli as a glutathione S-transferase fusion protein (GST-GK) [Liang et al, 1995] and was purified by chromatography over a glutathione-Sepharose 4B affinity column using the procedure provided by the manufacturer (Amersham Pharmacia Biotech, Piscataway, N.J.).
The assay was conducted at 30° C. in a flat bottom 96-well tissue culture plate from Costar (Cambridge, Mass.) with a final incubation volume of 120 μL. The incubation reaction contained the following: 25 mM Hepes buffer (pH 7.1), 25 mM KCl, 5 mM D-glucose, 1 mM ATP, 1.8 mM NAD, 2 mM MgCl2, 1 μM sorbitol-6-phosphate, 1 mM dithiothreitol, test drug or 10% DMSO, ˜7 units/ml G6PDH, and GK (see below). All organic reagents were >98% pure and were from Boehringer Mannheim with the exceptions of D-glucose and Hepes which were from Sigma Chemical Co, St Louis, Mo. Test compounds were dissolved in DMSO and were added to the incubation reaction minus GST-GK in a volume of 12 μL to yield a final DMSO concentration of 10%. This mix was pre-incubated in the temperature controlled chamber of a SPECTRAmax 250 microplate spectrophotometer (Molecular Devices Corporation, Sunnyvale, Calif.) for 10 minutes to allow temperature equilibrium and then the reaction was started by the addition of 20 μL GST-GK.
After addition of enzyme, the increase in optical density (OD) at 340 nm was monitored spectrophotometrically to determine the rate of change (OD340 per min). The GK activity (OD340/min) in control wells (10% DMSO minus GK activators) was compared with the activity in wells containing test GK activators, and the concentration of activator that produced a 50% increase in the activity of GK, i.e., the SC1.5, was calculated. The table below provides the in vitro glucokinase activity for the compounds in the Examples: […]

| SC1.5 average (concentration of activator that produced a 50% increase in the activity of GK) [µM] | SMILES |
| --- | --- |
| 26.185 | CC(C)(O)Cn1ccc(NC(=O)[C@@H](CC2CCCC2)n2ncc(Oc3ccc(F)cc3F)cc2=O)n1 [Example 32B, (R)-3-Cyclopentyl-2-[4-(2,4-difluoro-phenoxy)-6-oxo-6H-pyridazin-1-yl]-N-[1-(2-hydroxy-2-methyl-propyl)-1H-pyrazol-3-yl]-propionamide] |
| 0.265 | CC(C)(O)Cn1ccc(NC(=O)[C@H](CC2CCCC2)n2ncc(Oc3cc(F)ccc3F)cc2=O)n1 [Example 33A, (S)-3-Cyclopentyl-2-[4-(2,5-difluoro-phenoxy)-6-oxo-6H-pyridazin-1-yl]-N-[1-(2-hydroxy-2-methyl-propyl)-1H-pyrazol-3-yl]-propionamide] |
| 8.849 | CC(C)(O)Cn1ccc(NC(=O)[C@@H](CC2CCCC2)n2ncc(Oc3cc(F)ccc3F)cc2=O)n1 [Example 33B, (R)-3-Cyclopentyl-2-[4-(2,5-difluoro-phenoxy)-6-oxo-6H-pyridazin-1-yl]-N-[1-(2-hydroxy-2-methyl-propyl)-1H-pyrazol-3-yl]-propionamide] |
| 1.72 | CC(C)(O)Cn1ccc(NC(=O)C(CC2CCCC2)n2ncc(Oc3ccccc3N3CCOCC3)cc2=O)n1 (stereo not shown) [Example 34, 3-Cyclopentyl-N-[1-(2-hydroxy-2-methyl-propyl)-1H-pyrazol-3-yl]-2-[4-(2-morpholin-4-yl-phenoxy)-6-oxo-6H-pyridazin-1-yl]-propionamide] |
| 2.173 | CC(C)(O)Cn1ccc(NC(=O)C(CC2CCCC2)n2ncc(Oc3cccc(Oc4ccccc4)c3)cc2=O)n1 (stereo not shown) [Example 35, 3-Cyclopentyl-N-[1-(2-hydroxy-2-methyl-propyl)-1H-pyrazol-3-yl]-2-[6-oxo-4-(3-phenoxy-phenoxy)-6H-pyridazin-1-yl]-propionamide] |
| 0.034 | CC(C)(O)Cn1ccc(NC(=O)[C@H](CC2CCCC2)n2ncc(Oc3c(F)cccc3F)cc2=O)n1 [Example 36A, (S)-3-Cyclopentyl-2-[4-(2,6-difluoro-phenoxy)-6-oxo-6H-pyridazin-1-yl]-N-[1-(2-hydroxy-2-methyl-propyl)-1H-pyrazol-3-yl]-propionamide] |
| 1.596 | CC(C)(O)Cn1ccc(NC(=O)[C@@H](CC2CCCC2)n2ncc(Oc3c(F)cccc3F)cc2=O)n1 [Example 36B, (R)-3-Cyclopentyl-2-[4-(2,6-difluoro-phenoxy)-6-oxo-6H-pyridazin-1-yl]-N-[1-(2-hydroxy-2-methyl-propyl)-1H-pyrazol-3-yl]-propionamide] |
| 0.566 | CC(C)(O)Cn1ccc(NC(=O)C(CC2CCCC2)n2ncc(Oc3cccc4cnccc34)cc2=O)n1 (stereo not shown) [Example 37, 3-Cyclopentyl-N-[1-(2-hydroxy-2-methyl-propyl)-1H-pyrazol-3-yl]-2-[4-(isoquinolin-5-yloxy)-6-oxo-6H-pyridazin-1-yl]-propionamide] |
| 0.238 | CC(C)(O)Cn1ccc(NC(=O)[C@H](CC2CCCC2)n2ncc(Oc3cccc4cnccc34)cc2=O)n1 [Example 37A, (S)-3-Cyclopentyl-N-[1-(2-hydroxy-2-methyl-propyl)-1H-pyrazol-3-yl]-2-[4-(isoquinolin-5-yloxy)-6-oxo-6H-pyridazin-1-yl]-propionamide] |
| 18.488 | CC(C)(O)Cn1ccc(NC(=O)[C@@H](CC2CCCC2)n2ncc(Oc3cccc4cnccc34)cc2=O)n1 [Example 37B, (R)-3-Cyclopentyl-N-[1-(2-hydroxy-2-methyl-propyl)-1H-pyrazol-3-yl]-2-[4-(isoquinolin-5-yloxy)-6-oxo-6H-pyridazin-1-yl]-propionamide] |
